Measured values: PubChem BioAssay (NCI)
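In this assay, cells in 96-well plates receive the compound at five concentrations for 48 hours. Endpoints are linearly interpolated between the surrounding concentrations. At the TGI there is no net growth.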

Key:
Test in all cases: NCI-60 cell line screen, 48 h
[1] = test system: K-562 leukemia
[2] = test system: BT-549 breast
[3] = test system: HOP-62 NSCLC
[4] = test system: NCI/ADR-RES ovarian
[5] = test system: MDA-N
[6] = test system: NCI-H460 lung
[7] = test system: MDA-MB-231 breast
[8] = test system: 786-0 renal
[9] = test system: LOX IMVI melanoma
[10] = test system: SK-OV-3 ovarian
[11] = test system: COLO 205 colon
[12] = test system: MALME-3M melanoma
[13] = test system: A549 NSCLC
[14] = test system: M14 melanoma
[15] = test system: TK-10 renal
[16] = test system: MDA-MB-435
[17] = test system: T-47D breast
[18] = test system: HT29 colon
[19] = test system: HCT-116 colon
[20] = test system: NCI-H226 lung
[21] = test system: NCI-H23 lung
[22] = test system: A498 renal
[23] = test system: HOP-92 NSCLC
[24] = test system: SF-268 CNS
[25] = test system: IGROV1 ovarian
[26] = test system: SK-MEL-2 melanoma
[27] = test system: KM12 colon
[28] = test system: HCT-15 colon
[29] = test system: DU-145 prostate
[30] = test system: HCC-2998 colon
[31] = test system: OVCAR-5 ovarian
[32] = test system: SW-620 colon
[33] = test system: EKVX NSCLC
[34] = test system: UACC-62 melanoma
[35] = test system: SF-539 CNS
[36] = test system: SN12C renal
[37] = test system: U251 CNS
[38] = test system: SR leukemia
[39] = test system: OVCAR-4 ovarian
[40] = test system: SK-MEL-5 melanoma
[41] = test system: CAKI-1 renal
[42] = test system: UACC-257 melanoma
[43] = test system: SF-295 CNS
[44] = test system: PC-3 prostate
[45] = test system: ACHN renal
[46] = test system: HS 578T breast
[47] = test system: SNB-19 CNS
[48] = test system: UO-31 renal
[49] = test system: RPMI-8226 leukemia
[50] = test system: HL-60(TB) leukemia
[51] = test system: MCF7 breast
[52] = test system: SK-MEL-28 melanoma
[53] = test system: NCI-H522 lung
[54] = test system: OVCAR-3 ovarian
[55] = test system: SNB-75 CNS
[56] = test system: RXF 393 renal
[57] = test system: OVCAR-8 ovarian
[58] = test system: CCRF-CEM leukemia
[59] = test system: MOLT-4 leukemia

O=C(NCCN(CCNC(=O)c1cccc(O)c1O)CCNC(=O)c1cccc(O)c1O)c1cccc(O)c1O
TGI [1]: > 100 µM | TGI [2]: > 100 µM | TGI [3]: > 91.6 µM | TGI [4]: > 100 µM | TGI [5]: > 100 µM | TGI [6]: > 51.6 µM | TGI [7]: > 100 µM | TGI [8]: > 100 µM | TGI [9]: > 51.5 µM | TGI [10]: > 100 µM | TGI [11]: > 100 µM | TGI [12]: > 52.5 µM | TGI [13]: > 100 µM | TGI [14]: > 100 µM | TGI [15]: > 100 µM | TGI [16]: > 100 µM | TGI [17]: > 89.7 µM | TGI [18]: > 100 µM | TGI [19]: > 100 µM | TGI [20]: 85.6 µM | TGI [21]: > 57.4 µM | TGI [22]: > 100 µM | TGI [23]: > 86.9 µM | TGI [24]: > 100 µM | TGI [25]: > 72.4 µM | TGI [26]: > 100 µM | TGI [27]: > 100 µM | TGI [28]: > 100 µM | TGI [29]: > 78.9 µM | TGI [30]: > 60.2 µM | TGI [31]: > 100 µM | TGI [32]: > 100 µM | TGI [33]: > 100 µM | TGI [34]: 48 µM | TGI [35]: > 100 µM | TGI [36]: > 100 µM | TGI [37]: > 89 µM | TGI [38]: > 34.2 µM | TGI [39]: > 100 µM | TGI [40]: > 55.8 µM | TGI [41]: > 100 µM | TGI [42]: > 100 µM | TGI [43]: > 100 µM | TGI [44]: > 100 µM | TGI [45]: > 67.7 µM | TGI [46]: > 100 µM | TGI [47]: > 100 µM | TGI [48]: > 100 µM | TGI [49]: > 59.7 µM | TGI [50]: > 100 µM | TGI [51]: > 100 µM | TGI [52]: > 100 µM | TGI [53]: 15.4 µM | TGI [54]: > 40.2 µM | TGI [55]: > 100 µM | TGI [56]: 94.6 µM | TGI [57]: 49.4 µM

CSCCC(C(=O)O)N(C)C (centres undefined)
TGI [1]: > 100 µM | TGI [2]: > 100 µM | TGI [3]: > 100 µM | TGI [4]: > 100 µM | TGI [5]: > 100 µM | TGI [6]: > 100 µM | TGI [7]: > 100 µM | TGI [58]: > 100 µM | TGI [8]: > 100 µM | TGI [9]: > 100 µM | TGI [10]: > 100 µM | TGI [11]: > 100 µM | TGI [12]: > 100 µM | TGI [13]: > 100 µM | TGI [14]: > 100 µM | TGI [15]: > 100 µM | TGI [16]: > 100 µM | TGI [17]: > 100 µM | TGI [18]: > 100 µM | TGI [19]: > 100 µM | TGI [20]: > 100 µM | TGI [21]: > 100 µM | TGI [22]: > 100 µM | TGI [23]: > 100 µM | TGI [24]: > 100 µM | TGI [25]: > 100 µM | TGI [26]: > 100 µM | TGI [27]: > 100 µM | TGI [28]: > 100 µM | TGI [29]: > 100 µM | TGI [31]: > 100 µM | TGI [32]: > 100 µM | TGI [33]: > 100 µM | TGI [34]: > 100 µM | TGI [35]: > 100 µM | TGI [36]: > 100 µM | TGI [37]: > 100 µM | TGI [38]: > 100 µM | TGI [39]: > 100 µM | TGI [40]: > 100 µM | TGI [41]: > 100 µM | TGI [42]: > 100 µM | TGI [43]: > 100 µM | TGI [44]: > 100 µM | TGI [45]: > 100 µM | TGI [46]: > 100 µM | TGI [47]: > 100 µM | TGI [48]: > 100 µM | TGI [49]: > 100 µM | TGI [50]: > 100 µM | TGI [51]: > 100 µM | TGI [52]: > 100 µM | TGI [53]: > 100 µM | TGI [54]: > 100 µM | TGI [55]: > 100 µM | TGI [56]: > 100 µM | TGI [57]: > 100 µM

COC(=O)[C@@H]1CO[C@H](C(C)(C)C)N1C(=O)N1C=CC(=O)C[C@H]1C
TGI [1]: > 100 µM | TGI [2]: > 100 µM | TGI [3]: > 100 µM | TGI [4]: > 100 µM | TGI [5]: > 100 µM | TGI [7]: > 100 µM | TGI [58]: > 100 µM | TGI [8]: > 100 µM | TGI [9]: > 100 µM | TGI [10]: > 100 µM | TGI [11]: > 100 µM | TGI [12]: > 100 µM | TGI [13]: > 100 µM | TGI [14]: > 100 µM | TGI [15]: > 100 µM | TGI [16]: > 100 µM | TGI [17]: > 100 µM | TGI [18]: > 100 µM | TGI [19]: > 100 µM | TGI [20]: > 100 µM | TGI [21]: > 100 µM | TGI [22]: > 100 µM | TGI [23]: > 100 µM | TGI [24]: > 100 µM | TGI [25]: > 100 µM | TGI [26]: > 100 µM | TGI [27]: > 100 µM | TGI [29]: > 100 µM | TGI [31]: > 100 µM | TGI [32]: > 100 µM | TGI [33]: > 100 µM | TGI [34]: > 100 µM | TGI [36]: > 100 µM | TGI [37]: > 100 µM | TGI [38]: > 100 µM | TGI [40]: > 100 µM | TGI [41]: > 100 µM | TGI [42]: > 100 µM | TGI [43]: > 100 µM | TGI [44]: > 100 µM | TGI [45]: > 100 µM | TGI [46]: > 100 µM | TGI [48]: > 100 µM | TGI [49]: > 100 µM | TGI [50]: > 100 µM | TGI [51]: > 100 µM | TGI [52]: > 100 µM | TGI [53]: > 100 µM | TGI [54]: > 100 µM | TGI [55]: > 100 µM | TGI [56]: > 100 µM | TGI [57]: > 100 µM

CCOc1cnc(C(O)(c2ccccc2)c2ccccc2)o1
TGI [1]: > 100 µM | TGI [2]: > 100 µM | TGI [3]: > 100 µM | TGI [59]: > 100 µM | TGI [4]: > 100 µM | TGI [5]: > 100 µM | TGI [6]: > 100 µM | TGI [7]: > 100 µM | TGI [58]: > 100 µM | TGI [8]: > 100 µM | TGI [9]: > 100 µM | TGI [10]: > 100 µM | TGI [11]: > 100 µM | TGI [12]: > 100 µM | TGI [13]: > 100 µM | TGI [14]: > 100 µM | TGI [16]: > 100 µM | TGI [17]: > 100 µM | TGI [18]: > 100 µM | TGI [19]: > 100 µM | TGI [20]: > 100 µM | TGI [21]: > 100 µM | TGI [22]: > 100 µM | TGI [23]: > 100 µM | TGI [24]: > 100 µM | TGI [25]: > 100 µM | TGI [26]: > 100 µM | TGI [27]: > 100 µM | TGI [28]: > 100 µM | TGI [29]: > 100 µM | TGI [30]: > 100 µM | TGI [31]: > 100 µM | TGI [32]: > 100 µM | TGI [33]: > 100 µM | TGI [34]: > 100 µM | TGI [35]: > 100 µM | TGI [36]: > 100 µM | TGI [37]: > 100 µM | TGI [38]: > 100 µM | TGI [39]: > 100 µM | TGI [40]: > 100 µM | TGI [41]: > 100 µM | TGI [42]: > 100 µM | TGI [43]: > 100 µM | TGI [44]: > 100 µM | TGI [45]: > 100 µM | TGI [46]: > 100 µM | TGI [47]: > 100 µM | TGI [48]: > 100 µM | TGI [49]: > 100 µM | TGI [50]: > 100 µM | TGI [51]: > 100 µM | TGI [52]: > 100 µM | TGI [53]: > 100 µM | TGI [54]: > 100 µM | TGI [55]: > 100 µM | TGI [56]: > 100 µM | TGI [57]: > 100 µM
